Measurements reported in patent US20240076284A1, “NEW COMPOUNDS AND METHODS” (BENEVOLENTAI BIO LIMITED, priority 2020, published 2024).

Experiments:
MDR1 = target: T1, MDR1 (Homo sapiens, UniProt P08183); test: MDR1-MDCK effective efflux ratio; type: in vitro ADME; details: MDR1-MDCK relative to wild-type MDCK, 1 μM, 60 minutes, pH 7.4
T1 construct: expressed in transfected cells; host or cells: MDCK (canine kidney) cells
Experimental: (§1) Wild-type MDCK, MDR1-MDCK and BCRP-MDCK cells were seeded into 24 well Transwell plates and cultured for 3 days to form monolayers. Test compound were prepared at 1 μM in Hanks' Balanced Salt Solution containing 25 mM HEPES and loaded into the donor compartments of Transwell plates bearing the cell monolayers (pH 7.4 for both donor and receiver compartments). Lucifer Yellow was added to the apical buffer in all wells to assess integrity of the cell monolayer. Duplicate wells were prepared and incubated at 37° C. in a CO2 incubator. Samples were removed at time zero and 60 minutes and test compound analysed by LC-MS/MS. Concentrations of Lucifer Yellow in the samples was measured using a fluorescence plate reader. The apparent permeability (Papp) values of test compound was determined for both the apical to basal (A>B) and basal to apical (B>A) permeation and the efflux ratio (B>A: A>B) determined in each cell line. The effective efflux ratio was determined from the ratio of either MDR1-MDCK cells or BCRP-MDCK cells relative to the ratio observed in wild-type cells. A higher value represent a better substrate for the efflux mechanism, which is less preferable.

BCRP = target: T2, BCRP (Homo sapiens, UniProt Q9UNQ0); test: BCRP-MDCK effective efflux ratio; type: in vitro ADME; details: BCRP-MDCK relative to wild-type MDCK, 1 μM, 60 minutes, pH 7.4
T2 construct: expressed in transfected cells; host or cells: MDCK (canine kidney) cells
T2 sequence (Q9UNQ0 1-655): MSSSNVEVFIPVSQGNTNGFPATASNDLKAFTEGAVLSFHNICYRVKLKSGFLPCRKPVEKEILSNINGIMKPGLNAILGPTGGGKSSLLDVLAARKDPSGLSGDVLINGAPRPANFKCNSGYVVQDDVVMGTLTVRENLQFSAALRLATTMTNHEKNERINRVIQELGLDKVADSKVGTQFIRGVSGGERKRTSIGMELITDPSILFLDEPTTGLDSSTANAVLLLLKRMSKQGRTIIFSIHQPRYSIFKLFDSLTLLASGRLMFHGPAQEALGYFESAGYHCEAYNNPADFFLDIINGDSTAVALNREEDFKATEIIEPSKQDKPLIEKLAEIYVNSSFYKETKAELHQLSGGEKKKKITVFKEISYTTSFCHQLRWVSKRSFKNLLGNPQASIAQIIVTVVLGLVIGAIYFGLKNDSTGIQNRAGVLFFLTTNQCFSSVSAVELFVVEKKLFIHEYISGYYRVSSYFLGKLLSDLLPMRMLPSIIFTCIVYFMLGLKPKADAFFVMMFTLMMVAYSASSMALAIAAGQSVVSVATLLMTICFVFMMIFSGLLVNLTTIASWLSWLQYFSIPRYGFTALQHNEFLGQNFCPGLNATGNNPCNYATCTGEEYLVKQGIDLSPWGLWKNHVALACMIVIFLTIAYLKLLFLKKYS
Experimental: as §1

[1] = Human microsomal stability; type: in vitro ADME; details: human microsomes, first value of cell; NADPH, 37° C., up to 40 min
Experimental: (§2) This assay measures the metabolic stability of a given compound and predicts intrinsic liver clearance for various species. A quench plate is initially prepared which contains 400 μL MeCN and 25 ng/mL of internal standard. An aliquot of microsomes is defrosted and subsequently diluted with buffer. A solution of NADPH is made up fresh just before initialising the assay. 445 μL of microsome solution is added to the desired compound (5 μL in 10 μM DMSO) and the resulting solution mixed. The reaction is initiated by the addition of 50 μL of NADPH, a T0 sample is removed before the addition and quenched. The sample plate is kept at a constant 37° C. during the incubation. At pre-determined timepoints (2.5, 5, 10, 20 and 40 min) the incubation is mixed and 22.5 μL samples are transferred to quench plates. After completion of the time course, the quench plates are sealed and shaken for a minimum of 5 min, before centrifugation at 4000 rpm for 5 min. The supernatant is then subsequently transferred to a fresh plate and diluted 1:3 with MeOH/H2O. The plates are then heat sealed and analysed by a Water Acquity UPLC and a Waters TQ-S mass spectrometer. Waters MassLynx software is used for analysis using an MRM transition that has been previously generated from prior optimisation. After acquiring the data on the system the chromatograms are processed and checked using TargetLynx XS software and the raw data output is copied into a microsomal stability workbook. The workbook automatically populates and derives the CLint, t1/2 and scales the CLint values to generate Eh and predicted CL values. The analyst has the final workbook quality checked before the experiment is signed off.

Rat microsomal stability = type: in vitro ADME; details: rat microsomes, second value of cell; NADPH, 37° C., up to 40 min
Experimental: as §2

[2] = target: T3, Ba/F3 cells expressing BCR-ABL (Homo sapiens, UniProt P00519); test: Ba/F3 CellTiter-Glo Assay; type: cell-based; details: 48 h incubation, CellTiter-Glo luminescence
T3 construct: BCR (fusion partner, N-terminal portion of BCR); host or cells: Ba/F3 (murine pro-B cells); the other entry of the earlier key: BCR (P11274, Breakpoint cluster region protein)
T3 sequence (P00519 229-512 limits assumed): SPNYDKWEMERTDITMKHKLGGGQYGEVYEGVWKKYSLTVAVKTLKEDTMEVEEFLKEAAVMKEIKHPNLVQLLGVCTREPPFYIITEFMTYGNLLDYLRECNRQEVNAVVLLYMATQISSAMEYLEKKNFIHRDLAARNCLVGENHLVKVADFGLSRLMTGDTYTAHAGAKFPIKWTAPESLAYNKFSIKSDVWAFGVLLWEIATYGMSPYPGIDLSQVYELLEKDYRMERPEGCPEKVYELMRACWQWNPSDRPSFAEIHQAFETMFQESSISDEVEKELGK
Experimental: The CellTiter-Glo luminescent cell viability assay is a homogeneous method of determining the number of viable cells in culture based on quantification of the ATP present. Briefly, IL-3 dependent Ba/F3 cells are modified to express BCR-ABL. Activity of the transformed kinase overrides IL-3 dependency for cellular proliferation and survival. […] In this assay Ba/F3 cells expressing BCR-ABL (Advanced Cellular Dynamics) or parental Ba/F3 (control) cells were prepared at 5×10^4/mL in RPMI 1640 containing 10% FBS, 1×Glutamax and 750 ng/mL puromycin. Test compounds were dispensed into 384 well plates using the Tecan D300e at a top final assay concentration of 10 μM with dosing normalised to 0.1% DMSO in […]. 50 μL cells were added to each well of the prepared 384 well plates and the plates spun at 1000 rpm for 1 min prior to incubation at 37° C., 5% CO2 for 48 h. After 48 h 15 μL CellTiter-Glo reagent was added to each well in the plate. Following a 60 min incubation at rt luminescence was read on the Pherastar FS reader.

T1 sequence (P08183 whole entry, species assumed): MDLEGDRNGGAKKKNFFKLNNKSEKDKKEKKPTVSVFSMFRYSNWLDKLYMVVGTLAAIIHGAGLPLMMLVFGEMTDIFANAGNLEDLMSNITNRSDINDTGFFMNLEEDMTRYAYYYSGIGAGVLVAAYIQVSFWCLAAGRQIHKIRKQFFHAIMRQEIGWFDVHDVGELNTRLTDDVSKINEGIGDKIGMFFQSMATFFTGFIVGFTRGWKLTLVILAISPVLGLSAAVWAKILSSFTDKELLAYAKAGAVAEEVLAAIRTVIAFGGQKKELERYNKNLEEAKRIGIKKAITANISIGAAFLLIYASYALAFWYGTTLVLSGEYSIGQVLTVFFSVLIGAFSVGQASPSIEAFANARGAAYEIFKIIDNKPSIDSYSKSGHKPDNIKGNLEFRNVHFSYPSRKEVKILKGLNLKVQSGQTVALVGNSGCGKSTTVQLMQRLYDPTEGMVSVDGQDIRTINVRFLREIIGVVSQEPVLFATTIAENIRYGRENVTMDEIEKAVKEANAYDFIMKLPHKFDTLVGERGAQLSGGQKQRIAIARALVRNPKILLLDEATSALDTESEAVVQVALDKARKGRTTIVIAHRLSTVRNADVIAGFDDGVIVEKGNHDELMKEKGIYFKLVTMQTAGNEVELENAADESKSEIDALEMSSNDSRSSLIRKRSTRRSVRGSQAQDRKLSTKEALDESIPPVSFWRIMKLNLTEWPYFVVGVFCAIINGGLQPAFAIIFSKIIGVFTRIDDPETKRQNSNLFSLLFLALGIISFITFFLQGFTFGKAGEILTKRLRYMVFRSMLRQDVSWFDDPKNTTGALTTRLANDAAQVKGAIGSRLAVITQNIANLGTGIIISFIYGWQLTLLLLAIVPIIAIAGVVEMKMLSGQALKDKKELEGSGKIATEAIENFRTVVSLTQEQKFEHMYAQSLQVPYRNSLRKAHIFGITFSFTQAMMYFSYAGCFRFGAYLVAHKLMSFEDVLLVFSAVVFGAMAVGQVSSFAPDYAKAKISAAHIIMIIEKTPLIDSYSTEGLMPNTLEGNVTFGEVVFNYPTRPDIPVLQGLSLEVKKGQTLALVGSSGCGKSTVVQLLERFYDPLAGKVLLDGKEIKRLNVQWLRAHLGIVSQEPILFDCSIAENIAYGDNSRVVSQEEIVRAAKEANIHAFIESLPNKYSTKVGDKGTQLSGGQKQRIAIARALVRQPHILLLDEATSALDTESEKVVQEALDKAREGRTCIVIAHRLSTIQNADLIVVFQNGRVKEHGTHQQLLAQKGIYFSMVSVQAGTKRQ

SMILES: Cc1ccc(C(=O)Nc2cc(C(F)(F)F)ccn2)cc1-n1cc(-c2cccnc2)cn1 [Example 1, 4-Methyl-3-[4-(3-pyridyl)pyrazol-1-yl]-N-[4-(trifluoromethyl)-2-pyridyl]benzamide]
- MDCK MDR1 EER (MDR1): 1
- MDCK BCRP EER (BCRP): 1.5
- Microsomal stability (human/rat) Eh [1]: 0.70
- Microsomal stability (human/rat) Eh (Rat microsomal stability): 0.69
- IC50 [2]: 0.022 µM
